Columns and labels:
MCF7 cells = assay: MCF7 cell viability, MTT assay; format: cell-based; conditions: 72 hour incubation with 10 μM
Method: (§1) There is a precise correlation between the ability of AOH39 to inhibit the SV40 origin dependent in vitro DNA replication process and MCF7 cell viability, FIG. 4. Cell viability was determined colorimetrically using the MTT assay following a 72 hour incubation with 10 μM of AOH39. In vitro DNA replication activity was determined using the standard T-antigen and SV40 origin dependent in vitro DNA replication reaction (L. Malkas et al., Biochemistry, 29, 6362-6374 (1990)), and percent inhibition was determined relative to a reaction containing Tris-HCl/DMSO in place of AOH39 for the activity assay, and PBS/DMSO for the viability assay.

SK-N-DZ = assay: Cell viability, CellTiter Glo Assay, SK-N-DZ; format: cell-based; conditions: Homo sapiens, neuroblastoma cell line, read-out: Effect of AOH39 on Cell Viability IC50
Method: (§2) The IC50's listed in Table 1 and in FIGS. 8 and 9 were determined by monitoring cell proliferation in the absence or presence of increasing concentrations of AOH39 using the Cell-Titer Glo Assay, (Promega Inc., Madison, Wis.) which monitors the energy status of the entire culture and the viability of the cell population. (https://www.promega.com/products/cell-health-and-metabolismicell-viability-assaysicelltiter_glo-luminescent-cell-viability-assay/). As the population doubles so does the quantum yield from the assay. HCC1937 is a BRCA1 defective Breast Cancer cell line; MCF7 is an ER+ breast cancer cell line; MDA-MB231 and MDA-MB468 are ER-aggressive breast cancer cell lines. SK-N-AS, SK-N-BE2c, SK-N-DZ lines are neuroblastoma cell lines and LAN5 cells are a cell line derived from a neuroblastoma bone metastasis; MCF10A is a non-malignant but immortalized breast cell line. PBMC—peripheral blood monocytes (proliferating normal cells), and MCF10A is an immortalized but non-malignant breast epithelial cell line. Referring to FIGS. 8 and 9, the X-axis is the Log of AOH39 concentration in uM, where 0 corresponds to 1 uM and 1 corresponds to 10 uM. The Y-Axis indicates cell proliferation as a percentage of identical cell cultures grown in PBS/DMSO without added AOH39.

PBMC = assay: Cell viability, CellTiter Glo Assay, PBMC; format: cell-based; conditions: peripheral blood monocytes (proliferating normal cells), read-out: Effect of AOH39 on Cell Viability IC50
Method: as §2

MDA-MB468 = assay: Cell viability, CellTiter Glo Assay, MDA-MB468; format: cell-based; conditions: Homo sapiens, MDA-MB-468; MDA-MB468, ER- breast cancer cell line; read-out: Effect of AOH39 on Cell Viability IC50
Method: as §2

HCC1937 = assay: Cell viability, CellTiter Glo Assay, HCC1937; format: cell-based; conditions: Homo sapiens; HCC1937, BRCA1 defective breast cancer cell line; read-out: Effect of AOH39 on Cell Viability IC50
Method: as §2

LAN5 = assay: Cell viability, CellTiter Glo Assay, LAN5; format: cell-based; conditions: LA-N-5; LAN5, neuroblastoma bone metastasis cell line; read-out: Effect of AOH39 on Cell Viability IC50
Method: as §2

SK-N-BE2c = assay: Cell viability, CellTiter Glo Assay, SK-N-BE2c; format: cell-based; conditions: SK-N-BE(2)-C, neuroblastoma cell line, read-out: Effect of AOH39 on Cell Viability IC50
Method: as §2

MCF7 = assay: Cell viability, CellTiter Glo Assay, MCF7; format: cell-based; conditions: Homo sapiens; MCF7, ER+ breast cancer cell line; read-out: Effect of AOH39 on Cell Viability IC50
Method: as §2

SK-N-AS = assay: Cell viability, CellTiter Glo Assay, SK-N-AS; format: cell-based; conditions: Homo sapiens, neuroblastoma cell line, read-out: Effect of AOH39 on Cell Viability IC50
Method: as §2

MCF10A = assay: Cell viability, CellTiter Glo Assay, MCF10A; format: cell-based; conditions: Homo sapiens, MCF-10A, non-malignant but immortalized breast cell line, read-out: Effect of AOH39 on Cell Viability IC50
Method: as §2

[1] = system: MCF7 Cell SV40 origin-dependent In Vitro DNA replication; assay: T-antigen and SV40 origin dependent in vitro DNA replication reaction; format: biochemical; conditions: for Inhibition of in vitro DNA replication: relative to reaction containing Tris-HCl/DMSO
Method: In vitro DNA replication activity was determined using the standard T-antigen and SV40 origin dependent in vitro DNA replication reaction (L. Malkas et al., Biochemistry 29: 6362-6374 (1990) and percent inhibition was determined relative to a reaction containing Tris-HCl/DMSO in place of AOH39.) The reaction was started with the addition of T-antigen to the reaction mixture. Results are shown in FIG. 3, with AOH39 inhibiting replication by roughly 50% at concentrations of 5 μM and by more than 75% at 10 μM.
as §1

MDA-MB231 = assay: Cell viability, CellTiter Glo Assay, MDA-MB231; format: cell-based; conditions: Homo sapiens, MDA-MB-231; MDA-MB231, ER- breast cancer cell line; read-out: Effect of AOH39 on Cell Viability IC50
Method: as §2

Q: Which “MCF7 cell viability (in words)” value (MCF7 cells) does the source give for `O=C(CNC(=O)c1cccc2ccccc12)Nc1ccccc1Cc1ccccc1` [AOH39] here?
A: Its value is “significant decrease in MCF7 cell viability”.

Q: And the IC50 (SK-N-DZ)?
A: The IC50 was 1700 nM.

Q: What about the IC50 (PBMC) of the same compound?
A: The IC50 was 13200 nM.

Q: And the IC50 (MDA-MB468)?
A: The IC50 was 3300 nM.

Q: What about the IC50 (HCC1937) of the same compound?
A: Its IC50 is 2200 nM.

Q: What about the IC50 (LAN5) of the same compound?
A: Its IC50 is 1200 nM.

Q: And the IC50 (SK-N-BE2c)?
A: Its IC50 is 2900 nM.

Q: And the IC50 (MCF7)?
A: The IC50 was 3100 nM.

Q: And the IC50 (SK-N-AS)?
A: Its IC50 is 2200 nM.

Q: What about the IC50 (MCF10A) of the same compound?
A: Its IC50 is 6200 nM.

Q: And the “Inhibition of in vitro DNA replication” value ([1]; 5 μM)?
A: Its value is “roughly 50%”.

Q: And the “Inhibition of in vitro DNA replication” value ([1]; 10 μM)?
A: Its value is “more than 75%”.

Q: What about the “Inhibition of DNA replication (in words)” value ([1]; relative to control replication reaction containing PBS/DMSO in place of compound) of the same compound?
A: Its value is “inhibited DNA replication significantly”.

Q: And the IC50 (MDA-MB231)?
A: The IC50 was 1000 nM.
